PubChem BioAssay AID328 (DTP/NCI, 2004)
Where “and” joins values, the source holds several entries; their conditions need not be identical. Equal entries are not always repeated. Toxic doses and inconclusive results are not listed.

Test system: BDF1 mice, P388 leukemia ip, median survival T/C
Test: NCI In Vivo Anticancer Drug Screen. Data for tumor model P388 Leukemia (intraperitoneal) in B6D2F1 (BDF1) mice
Settings: endpoint: median survival time, higher = longer survival
Procedure, shortened: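 Antitumour effect was judged in vivo: survival in drug-treated mice, normalised to that of vehicle-dosed controls, gives the reported T/C.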

[1] = dose: 100.0 mg/kg/injection, schedule: Q01DX009 (ip), vehicle: saline with Tween-80
[2] = dose: 200.0 mg/kg/injection, schedule: Q01DX009 (ip), vehicle: saline with Tween-80
[3] = dose: 50.0 mg/kg/injection, schedule: Q01DX009 (ip), vehicle: saline with Tween-80
[4] = dose: 100.0 mg/kg/injection, schedule: Q04DX003 (ip), vehicle: saline with Tween-80
[5] = dose: 100.0 mg/kg/injection, schedule: Q04DX003 (ip), vehicle: Klucel (hydroxypropylcellulose) (HPC)
[6] = dose: 200.0 mg/kg/injection, schedule: Q04DX003 (ip), vehicle: Klucel (hydroxypropylcellulose) (HPC)
[7] = dose: 400.0 mg/kg/injection, schedule: Q04DX003 (ip), vehicle: Klucel (hydroxypropylcellulose) (HPC)
[8] = dose: 50.0 mg/kg/injection, schedule: Q01DX009 (ip), vehicle: Klucel (hydroxypropylcellulose) (HPC)
[9] = dose: 25.0 mg/kg/injection, schedule: Q01DX009 (ip), vehicle: Klucel (hydroxypropylcellulose) (HPC)

CO/C=C1\Cc2cc(OC)c(OC)cc2C1=O
T/C [1]: 90 % of control | T/C [2]: 100 % of control | T/C (dose: 400.0 mg/kg/injection, schedule: Q01DX009 (ip), vehicle: saline with Tween-80): 109 % of control

CC(=O)NCCN=Cc1ccccc1
T/C [1]: 112 % of control | T/C [2]: 120 % of control

Nc1nc(N)c2cc(S(=O)(=O)c3cccc(C(F)(F)F)c3)ccc2n1
T/C [3]: 95 % of control | T/C [1]: 111 % of control | T/C [2]: 120 % of control

CN(C)C1C(=O)C(C(=O)NCN2CCOB(c3ccccc3)OCC2)=C(O)C2(O)C(O)=C3C(=O)C4C(O)=CC=CC4C(C)(O)C3CC12 (configuration not stated)
T/C (dose: 200.0 mg/kg/injection, schedule: Q04DX002 (ip), vehicle: saline with Tween-80): 93 % of control | T/C (dose: 400.0 mg/kg/injection, schedule: Q04DX002 (ip), vehicle: saline with Tween-80): 112 % of control

CCCCN(C(=O)C(F)(F)F)C(C)(C)C(SSSC(c1cccs1)C(C)(C)N(CCCC)C(=O)C(F)(F)F)c1cccs1 (configuration not stated)
T/C [4]: 109 % of control

COc1ccc(Cl)cc1NC(=O)c1ccccc1C(=O)O
T/C [5]: 91 % of control | T/C [6]: 87 % of control | T/C [7]: 87 % of control

CCCCCc1cc(/C=C2/N=C(c3ccc[nH]3)C=C2OC)[nH]c1C
T/C (dose: 1.0 mg/kg/injection, schedule: Q01DX009 (ip), vehicle: other): 118 % of control | T/C (dose: 2.0 mg/kg/injection, schedule: Q01DX009 (ip), vehicle: other): 118 % of control

O=C(Nc1ccc2c(c1)C(Br)c1ccccc1-2)C(F)(F)F (configuration not stated)
T/C [8]: 90 % of control | T/C (dose: 100.0 mg/kg/injection, schedule: Q01DX009 (ip), vehicle: Klucel (hydroxypropylcellulose) (HPC)): 100 % of control | T/C (dose: 200.0 mg/kg/injection, schedule: Q01DX009 (ip), vehicle: Klucel (hydroxypropylcellulose) (HPC)): 118 % of control

C1=CC2C3CC(OCCOC4CC5CC4C4CC=CC54)C(C3)C2C1 (configuration not stated)
T/C [4]: 115 % of control | T/C (dose: 200.0 mg/kg/injection, schedule: Q04DX003 (ip), vehicle: saline with Tween-80): 115 % of control | T/C (dose: 400.0 mg/kg/injection, schedule: Q04DX003 (ip), vehicle: saline with Tween-80): 120 % of control

Nc1ncccc1C(=O)O
T/C (dose: 62.5 mg/kg/injection, schedule: Q01DX010 (ip), vehicle: saline): 90 % of control | T/C (dose: 125.0 mg/kg/injection, schedule: Q01DX010 (ip), vehicle: saline): 100 % of control | T/C (dose: 250.0 mg/kg/injection, schedule: Q01DX010 (ip), vehicle: carboxymethylcellulose (CMC)): 113 % of control | T/C (dose: 500.0 mg/kg/injection, schedule: Q01DX010 (ip), vehicle: carboxymethylcellulose (CMC)): 100 % of control

NNc1c(C(N)=O)c2c(N)ncnc2n1C1OC(CO)C(O)C1O (configuration not stated)
T/C (dose: 50.0 mg/kg/injection, schedule: Q04DX003 (ip), vehicle: water): 171 % of control | T/C (dose: 100.0 mg/kg/injection, schedule: Q04DX003 (ip), vehicle: water): 166 % of control | T/C (dose: 200.0 mg/kg/injection, schedule: Q04DX003 (ip), vehicle: water): 199 % of control

Cc1cc2c(cc1C)NC(=O)CC(=O)N2
T/C [5]: 100 % of control | T/C [6]: 86 % of control | T/C [7]: 86 % of control

O=C1CN(CN2CCCCC2)C(=O)CN1CN1CCCCC1
T/C (dose: 12.5 mg/kg/injection, schedule: Q01DX009 (ip), vehicle: Klucel (hydroxypropylcellulose) (HPC)): 115 % of control | T/C [9]: 117 % of control | T/C [8]: 92 % of control and 100 % of control | T/C [5]: 120 % of control | T/C [6]: 108 % of control

O=C(COC1CCCCC1)OC1CCCCC1
T/C (dose: 25.0 mg/kg/injection, schedule: Q01DX009 (ip), vehicle: saline with Tween-80): 100 % of control | T/C [3]: 113 % of control | T/C [1]: 118 % of control

CC(=N/NC(=S)NCCN1CCCCC1)/C(C)=N\NC(=S)NCCN1CCCCC1
T/C (dose: 0.78 mg/kg/injection, schedule: Q01DX009 (ip), vehicle: saline): 90 % of control | T/C (dose: 1.56 mg/kg/injection, schedule: Q01DX009 (ip), vehicle: saline): 98 % of control | T/C (dose: 3.13 mg/kg/injection, schedule: Q01DX009 (ip), vehicle: saline): 98 % of control and 121 % of control | T/C (dose: 6.25 mg/kg/injection, schedule: Q01DX009 (ip), vehicle: saline): 105 % of control and 109 % of control | T/C (dose: 12.5 mg/kg/injection, schedule: Q01DX009 (ip), vehicle: saline): 103 % of control

CN(C)CNc1ncnc2onc(-c3ccccc3)c12
T/C (dose: 50.0 mg/kg/injection, schedule: Q01DX009 (ip), vehicle: other): 100 % of control | T/C (dose: 100.0 mg/kg/injection, schedule: Q01DX009 (ip), vehicle: other): 102 % of control

NC(CCSCc1ccc(N(CCCl)CCCl)cc1)C(=O)O (configuration not stated)
T/C (dose: 2.0 mg/kg/injection, schedule: Q01DX009 (ip), vehicle: Klucel (hydroxypropylcellulose) (HPC)): 163 % of control | T/C (dose: 3.0 mg/kg/injection, schedule: Q01DX009 (ip), vehicle: Klucel (hydroxypropylcellulose) (HPC)): 186 % of control | T/C (dose: 4.5 mg/kg/injection, schedule: Q01DX009 (ip), vehicle: Klucel (hydroxypropylcellulose) (HPC)): 190 % of control | T/C (dose: 5.0 mg/kg/injection, schedule: Q04DX003 (ip), vehicle: Klucel (hydroxypropylcellulose) (HPC)): 169 % of control | T/C (dose: 7.0 mg/kg/injection, schedule: Q01DX009 (ip), vehicle: Klucel (hydroxypropylcellulose) (HPC)): 183 % of control and 213 % of control | T/C (dose: 8.0 mg/kg/injection, schedule: Q04DX003 (ip), vehicle: Klucel (hydroxypropylcellulose) (HPC)): 184 % of control | T/C (dose: 11.0 mg/kg/injection, schedule: Q01DX009 (ip), vehicle: Klucel (hydroxypropylcellulose) (HPC)): 212 % of control | T/C (dose: 13.0 mg/kg/injection, schedule: Q04DX003 (ip), vehicle: Klucel (hydroxypropylcellulose) (HPC)): 207 % of control | T/C (dose: 14.0 mg/kg/injection, schedule: Q04DX003 (ip), vehicle: alcohol): 230 % of control | T/C (dose: 17.0 mg/kg/injection, schedule: Q01DX009 (ip), vehicle: Klucel (hydroxypropylcellulose) (HPC)): 225 % of control and 272 % of control | T/C (dose: 20.0 mg/kg/injection, schedule: Q04DX003 (ip), vehicle: Klucel (hydroxypropylcellulose) (HPC)): 230 % of control and 204 % of control | T/C (dose: 21.0 mg/kg/injection, schedule: Q04DX003 (ip), vehicle: alcohol): 226 % of control | T/C [9]: 272 % of control | T/C (dose: 30.0 mg/kg/injection, schedule: Q04DX003 (ip), vehicle: Klucel (hydroxypropylcellulose) (HPC)): 272 % of control | T/C (dose: 33.0 mg/kg/injection, schedule: Q04DX003 (ip), vehicle: saline with Tween-80): 168 % of control and 213 % of control | T/C (dose: 37.0 mg/kg/injection, schedule: Q01DX009 (ip), vehicle: Klucel (hydroxypropylcellulose) (HPC)): 272 % of control | T/C (dose: 45.0 mg/kg/injection, schedule: Q04DX003 (ip), vehicle: Klucel (hydroxypropylcellulose) (HPC)): 268 % of control | T/C [8]: 89 % of control | T/C (dose: 50.0 mg/kg/injection, schedule: Q04DX003 (ip), vehicle: saline with Tween-80): 227 % of control and 272 % of control | T/C (dose: 67.0 mg/kg/injection, schedule: Q04DX003 (ip), vehicle: Klucel (hydroxypropylcellulose) (HPC)): 230 % of control | T/C (dose: 75.0 mg/kg/injection, schedule: Q04DX003 (ip), vehicle: saline with Tween-80): 272 % of control and 190 % of control | T/C [5]: 230 % of control and 250 % of control | T/C (dose: 150.0 mg/kg/injection, schedule: Q04DX003 (ip), vehicle: Klucel (hydroxypropylcellulose) (HPC)): 123 % of control | T/C (dose: 375.0 micrograms/kg/injection, schedule: Q04DX003 (ip), vehicle: saline with Tween-80): 120 % of control

COc1ccc(-c2nnc(C)nc2-c2ccc(OC)cc2)cc1
T/C (dose: 50.0 mg/kg/injection, schedule: Q01DX005 (ip), vehicle: saline with Tween-80): 96 % of control | T/C (dose: 100.0 mg/kg/injection, schedule: Q01DX005 (ip), vehicle: saline with Tween-80): 106 % of control | T/C (dose: 200.0 mg/kg/injection, schedule: Q01DX005 (ip), vehicle: saline with Tween-80): 100 % of control

CCCC[P+](c1ccccc1)(c1ccccc1)c1ccccc1
T/C (dose: 0.6 mg/kg/injection, schedule: Q01DX009 (ip), vehicle: saline): 122 % of control | T/C (dose: 1.2 mg/kg/injection, schedule: Q01DX009 (ip), vehicle: saline): 105 % of control | T/C (dose: 2.5 mg/kg/injection, schedule: Q01DX009 (ip), vehicle: saline): 150 % of control | T/C (dose: 5.0 mg/kg/injection, schedule: Q01DX009 (ip), vehicle: saline): 115 % of control | T/C (dose: 40.0 mg/kg/injection, schedule: Q01DX009 (ip), vehicle: saline): 95 % of control

CC(C)CC(NC(=O)c1ccccc1)C(=O)O (configuration not stated)
T/C (dose: 100.0 mg/kg/injection, schedule: Q04DX003 (ip), vehicle: alkali diluted with water): 99 % of control | T/C (dose: 200.0 mg/kg/injection, schedule: Q04DX003 (ip), vehicle: alkali diluted with water): 99 % of control | T/C (dose: 400.0 mg/kg/injection, schedule: Q04DX003 (ip), vehicle: alkali diluted with water): 108 % of control
